Experimental data reported in ChEMBL document CHEMBL1153190, “Novel neofusapyrones isolated from Verticillium dahliae as potent antifungal substances” (Bioorg Med Chem Lett, 2010).
Active and inactive are the calls of the source. The calls are words filed in the database; no cut-off is given here.

Assays:
HeLa = experiment: Cytotoxicity against human HeLa cells; assay type: cell-based
HepG2 = experiment: Cytotoxicity against human HepG2 cells; assay type: cell-based
Bipolaris oryzae = experiment: Antifungal activity against Cochliobolus miyabeanus at 100 ng/ml; assay type: functional, organism-based
Staphylococcus aureus = experiment: Antibacterial activity against methicillin-resistant Staphylococcus aureus Isolate 87-7927 at 10 ug; assay type: functional, organism-based

CCCCCCC(C)C/C(C)=C\C(C)/C=C(C)/C=C/C(O)C(C)c1cc(O)c([C@@H]2O[C@H](CO)C[C@H](O)[C@H]2O)c(=O)o1 (some centres not stated)
Activity (HeLa): Non-toxic
Activity (HepG2): Non-toxic
Activity (Bipolaris oryzae): Active

CCCCCCC(C)C/C(C)=C\C(C)/C=C(C)/C=C/C(O)C(C)(C)c1cc(O)c([C@@H]2O[C@H](CO)C[C@H](O)[C@H]2O)c(=O)o1 (some centres not stated) [DEOXYNEOFUSAPYRONE]
Activity (HeLa): Non-toxic
Activity (HepG2): Non-toxic
Activity (Bipolaris oryzae): Active
Activity (Staphylococcus aureus): Active
